Measurements from US20260374739A1, “SMALL MOLECULAR WEIGHT CHEMICAL COMPOUND TO ANTAGONIZE EPH-EPHRIN TETRAMERIZATION AND INHIBIT BIDIRECTIONAL SIGNALING” (THE BOARD OF REGENTS OF THE UNIVERSITY OF TEXAS SYSTEM, priority 2022, published 2026).
Several values for one entry are separate records, joined by “and”; a condition that tells them apart may be missing. Equal values may be shown once. Read-outs that look alike come from different tables or passages of the source. Marks after values point to notes of the source that are not given here.

Target: T1, EphrinB2-EphB4 (Homo sapiens, UniProt P54760)
T1 construct: soluble human EphB1-His, EphB2-His, and EphB4-His ectodomains; commercially available human EphrinB1-Fc (EB1), EphrinB2-Fc (EB2), and EphrinB3-Fc (EB3) ectodomain proteins; purchased
T1 sequence (P54760 16-539 limits assumed): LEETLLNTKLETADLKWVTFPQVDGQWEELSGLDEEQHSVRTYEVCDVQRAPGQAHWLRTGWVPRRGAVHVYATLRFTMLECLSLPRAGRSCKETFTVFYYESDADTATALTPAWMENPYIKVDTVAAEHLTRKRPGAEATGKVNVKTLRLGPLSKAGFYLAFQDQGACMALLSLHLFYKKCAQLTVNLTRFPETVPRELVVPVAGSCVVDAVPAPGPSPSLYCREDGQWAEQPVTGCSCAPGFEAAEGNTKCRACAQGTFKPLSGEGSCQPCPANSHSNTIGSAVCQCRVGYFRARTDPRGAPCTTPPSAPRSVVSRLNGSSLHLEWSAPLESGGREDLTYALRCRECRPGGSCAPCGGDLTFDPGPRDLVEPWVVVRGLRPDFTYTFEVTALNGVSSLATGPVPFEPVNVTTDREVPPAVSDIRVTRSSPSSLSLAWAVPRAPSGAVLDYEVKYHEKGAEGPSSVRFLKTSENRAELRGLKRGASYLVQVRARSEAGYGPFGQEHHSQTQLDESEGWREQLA
Experiment: Octet 80 sec association/500 sec dissociation, immobilized human EphrinB2-Fc binding to soluble human EphB4-His
Details: for inhibition at 3.2 µM: EphB4, 25 nM EphB4, 3.2 μM compound, A20-I as max control, 0* = less than 0, no inhibition; for EphB4 Inhibition Percent, Inhibition of Association ONLY: at 3.2 μM and 80 seconds; for EphB4 Inhibition Percent, Inhibition of Association ONLY / EphB4 Inhibition Percent, Inhibition of Association-Dissociation: immobilized human EphrinB2, 25 nM soluble human EphB4; for EphB4 Inhibition Percent, Inhibition of Association-Dissociation: at 3.2 μM and 580 seconds
Method in brief: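 EphrinB2-Fc captured on AHC biosensors, then soluble His-tagged EphB ectodomain (25 nM for % inhibition runs) associated 80 s and dissociated 500 s in PBS, 0.05% Tween-20, 1% DMSO ± compound. Compounds tested at 0.1–3.2 μM with a 10 μM max standard; IC50 from AUC of full traces or at 75 s and 135 s.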

[1] = read-out: % Inhibition: Association + Dissociation (160 sec)
[2] = read-out: % Inhibition: Association ONLY (80 sec)

Row | EphB4 Inhibition Percent, Inhibition of Association ONLY | EphB4 Inhibition Percent, Inhibition of Association-Dissociation | SMILES | inhibition at 3.2 µM [1] [%] | inhibition at 3.2 µM [2] [%]
1 |  |  | COc1ccccc1N1CCN(Cc2cc(Br)c(O)c3ncccc23)CC1 [Compound 70, 7-bromo-5-((4-(2-methoxyphenyl)piperazin-1-yl)methyl)quinolin-8-ol] | 36.3 | 15.1
2 |  |  | COc1ccccc1N1CCN(Cc2cc(I)c(O)c3ncccc23)CC1 [Compound 71, 7-iodo-5-((4-(2-methoxyphenyl)piperazin-1-yl)methyl)quinolin-8-ol] | 35.6 | 17.5
3 | 17.9% and 11.6% | 34.5% and 29.6% | Oc1c(CN2CCCCC2)cc(Cl)c2cccnc12 [Compound 76, 5-chloro-7-(piperidin-1-ylmethyl)quinolin-8-ol, reference compound] |  | 
4 | 0*% | 2.7% | COCc1cc(CN2CCN(C)CC2)c(O)c2ncccc12 [Compound 77, 5-(methoxymethyl)-7-((4-methylpiperazin-1-yl)methyl)quinolin-8-ol, reference compound] |  | 
